In brackets after ≈: the same amount, converted by molar mass.
How the values were obtained:
[1] = tested on: Staphylococcus aureus; assay: Antibacterial activity against Staphylococcus aureus ATCC 25923 after 12 hrs by serial plate dilution method; format: functional; conditions: ATCC 25923, 12 h
[2] = tested on: Escherichia coli; assay: Antibacterial activity against Escherichia coli ATCC 25922 after 12 hrs by serial plate dilution method; format: functional; conditions: ATCC 25922, 12 h
[3] = tested on: Pseudomonas aeruginosa; assay: Antibacterial activity against Pseudomonas aeruginosa ATCC 27853 after 12 hrs by serial plate dilution method; format: functional; conditions: ATCC 27853, 12 h
[4] = Cytotoxicity against mouse NIH/3T3 cells assessed as cell growth inhibition at 50 ug/mL after 48 hrs by MTT assay; format: cell-based, NIH3T3; conditions: read-out: GI
[5] = tested on: Mycobacterium tuberculosis; assay: Antimycobacterial activity against Mycobacterium tuberculosis H37Rv after 5 days by fluorescence analysis; format: functional; conditions: 120 h

Structure (SMILES)	MIC [1] [µg/mL]	MIC [2] [µg/mL]	MIC [3] [µg/mL]	inhibition at 48 h, 50 ug/mL [4] [%]	MIC [5] [µM]
Cc1nn2c(/C=N/Nc3nc(-c4ccc(F)cc4)cs3)c(-c3ccc(Cl)cc3)nc2s1	25 (≈ 53.3 µM)	25 (≈ 53.3 µM)	50 (≈ 107 µM)	–	–
Cc1ccc(-c2nc3sc(C)nn3c2/C=N/Nc2nc(-c3ccc(Cl)cc3)cs2)cc1	50 (≈ 108 µM)	50 (≈ 108 µM)	50 (≈ 108 µM)	–	–
Cc1ccc(-c2csc(N/N=C/c3c(-c4ccc(C)cc4)nc4sc(C)nn34)n2)cc1	50 (≈ 112 µM)	50 (≈ 112 µM)	25 (≈ 56.2 µM)	–	–
COc1ccc(-c2csc(N/N=C/c3c(-c4ccc(OC)cc4)nc4sc(C(F)(F)F)nn34)n2)cc1	25 (≈ 47.1 µM)	12.5 (≈ 23.6 µM)	25 (≈ 47.1 µM)	–	–
COc1ccc(-c2csc(N/N=C/c3c(-c4ccc(C)cc4)nc4sc(C)nn34)n2)cc1	50 (≈ 109 µM)	50 (≈ 109 µM)	25 (≈ 54.3 µM)	–	–
Fc1ccc(-c2csc(N/N=C/c3c(-c4ccc(Cl)cc4)nc4sc(C(F)(F)F)nn34)n2)cc1	12.5 (≈ 23.9 µM)	6.25 (≈ 12 µM)	6.25 (≈ 12 µM)	15.9	–
Cc1ccc(-c2csc(N/N=C/c3c(-c4ccc(Cl)cc4)nc4sc(C)nn34)n2)cc1	50 (≈ 108 µM)	50 (≈ 108 µM)	50 (≈ 108 µM)	–	–
COc1ccc(-c2nc3sc(C(F)(F)F)nn3c2/C=N/Nc2nc(-c3ccc(C)cc3)cs2)cc1	50 (≈ 97.2 µM)	25 (≈ 48.6 µM)	25 (≈ 48.6 µM)	18.4	–
COc1ccc(-c2nc3sc(C(F)(F)F)nn3c2/C=N/Nc2nc(-c3ccc(F)cc3)cs2)cc1	50 (≈ 96.4 µM)	50 (≈ 96.4 µM)	25 (≈ 48.2 µM)	18.9	–
Cc1ccc(-c2nc3sc(C)nn3c2/C=N/Nc2nc(-c3ccc(F)cc3)cs2)cc1	50 (≈ 111 µM)	50 (≈ 111 µM)	50 (≈ 111 µM)	22.3	–
COc1ccc(-c2csc(N/N=C/c3ccc4c(c3)c3ccccc3n4C)n2)cc1OC	–	–	–	–	21 (≈ 9.29 µg/mL)
COc1ccc(-c2nc3sc(C)nn3c2/C=N/Nc2nc(-c3ccc([N+](=O)[O-])cc3)cs2)cc1	25 (≈ 50.9 µM)	25 (≈ 50.9 µM)	25 (≈ 50.9 µM)	–	–
COc1ccc(-c2nc3sc(C)nn3c2/C=N/Nc2nc(-c3ccc(C)cc3)cs2)cc1	50 (≈ 109 µM)	50 (≈ 109 µM)	50 (≈ 109 µM)	–	–
Cc1ccc(-c2nc3sc(C)nn3c2/C=N/Nc2nc(-c3ccc([N+](=O)[O-])cc3)cs2)cc1	12.5 (≈ 26.3 µM)	6.25 (≈ 13.1 µM)	12.5 (≈ 26.3 µM)	23.3	–
O=[N+]([O-])c1ccc(-c2csc(N/N=C/c3c(-c4ccc(Cl)cc4)nc4sc(C(F)(F)F)nn34)n2)cc1	12.5 (≈ 22.7 µM)	12.5 (≈ 22.7 µM)	25 (≈ 45.5 µM)	–	–
COc1ccc(-c2csc(N/N=C/c3c(-c4ccc(OC)cc4)nc4sc(C)nn34)n2)cc1	50 (≈ 105 µM)	12.5 (≈ 26.2 µM)	50 (≈ 105 µM)	–	–
COc1ccc(-c2nc3sc(C)nn3c2/C=N/Nc2nc(-c3ccc(F)cc3)cs2)cc1	50 (≈ 108 µM)	50 (≈ 108 µM)	50 (≈ 108 µM)	–	–
COc1ccc(-c2csc(N/N=C/c3c(-c4ccc(Cl)cc4)nc4sc(C)nn34)n2)cc1	50 (≈ 104 µM)	25 (≈ 52 µM)	50 (≈ 104 µM)	20.8	–
FC(F)(F)c1nn2c(/C=N/Nc3nc(-c4ccc(Cl)cc4)cs3)c(-c3ccc(Cl)cc3)nc2s1	12.5 (≈ 23.2 µM)	12.5 (≈ 23.2 µM)	50 (≈ 92.7 µM)	–	–
COc1ccc(-c2nc3sc(C(F)(F)F)nn3c2/C=N/Nc2nc(-c3ccc(Cl)cc3)cs2)cc1	50 (≈ 93.5 µM)	50 (≈ 93.5 µM)	50 (≈ 93.5 µM)	–	–
Cc1nn2c(/C=N/Nc3nc(-c4ccc(Cl)cc4)cs3)c(-c3ccc(Cl)cc3)nc2s1	25 (≈ 51.5 µM)	25 (≈ 51.5 µM)	25 (≈ 51.5 µM)	–	–
COc1ccc(-c2csc(N/N=C/c3c(-c4ccc(Cl)cc4)nc4sc(C(F)(F)F)nn34)n2)cc1	25 (≈ 46.7 µM)	12.5 (≈ 23.4 µM)	25 (≈ 46.7 µM)	14.7	–
Cc1ccc(-c2csc(N/N=C/c3c(-c4ccc(Cl)cc4)nc4sc(C(F)(F)F)nn34)n2)cc1	25 (≈ 48.2 µM)	25 (≈ 48.2 µM)	25 (≈ 48.2 µM)	19.6	–
COc1ccc(-c2nc3sc(C)nn3c2/C=N/Nc2nc(-c3ccc(Cl)cc3)cs2)cc1	12.5 (≈ 26 µM)	6.25 (≈ 13 µM)	12.5 (≈ 26 µM)	12.7	–

From ChEMBL document CHEMBL3779863, “Ionic liquid-promoted one-pot synthesis of thiazoleimidazo[2,1-b][1,3,4]thiadiazole hybrids and their antitubercular activity” (Medchemcomm, 2016)
